In ChEMBL document CHEMBL5360640, “Liquiritigenin Confers Liver Protection by Enhancing NRF2 Signaling through Both Canonical and Non-canonical Signaling Pathways” (2023):
The source made the active and inactive calls.

Key:
Mus musculus [1] = test: Hepatoprotective activity against cisplatin induced liver injury […] mouse model assessed as rescue of hepatocellular edema at 40 mg/kg, ip administered every 24 hrs for 72 hrs; format: functional, organism-based
Mus musculus [2] = test: Hepatoprotective activity against cisplatin induced liver injury […] mouse model assessed as reduction of AST in serum at 40 mg/kg, ip administered every 24 hrs for 72 hrs; format: functional, organism-based
Mus musculus [3] = test: Hepatoprotective activity against cisplatin induced liver injury […] mouse model assessed as reduction of ALT in serum at 40 mg/kg, ip administered every 24 hrs for 72 hrs; format: functional, organism-based
BNL CL.2 [4] = test: Effect on p62 level in mouse BNL CL.2 NRF2 knockout cells assessed as increase in protein level treated at 40 uM for 24 hrs by immunoblot analysis; format: functional, cell-based
BNL CL.2 [5] = test: Effect of ROS generation in cisplatin induced hepatotoxicity in mouse BNL CL.2 NRF2 knockout cells assessed as increase in ROS level treated at 40 uM for 24 hrs (reference value: 93.8%); format: functional
BNL CL.2 [6] = test: Inhibition of autophagy in mouse BNL CL.2 cells assessed as suppression of autophagosome formation by measuring reduction in red puncta incubated upto 80 uM for 24 hrs by immuno fluoroscence analysis; format: functional, cell-based
[7] = biological target: T1, Nuclear factor erythroid 2-related factor 2 (Mus musculus) (UniProt Q60795); test: Activation of NRF2 in mouse BNL CL.2 cells assessed as increase in Gclm gene level upto 40 uM incubated upto 24 hrs by rt-qPCR analysis; format: cell-based; details: filed as activator
T1 sequence (whole entry): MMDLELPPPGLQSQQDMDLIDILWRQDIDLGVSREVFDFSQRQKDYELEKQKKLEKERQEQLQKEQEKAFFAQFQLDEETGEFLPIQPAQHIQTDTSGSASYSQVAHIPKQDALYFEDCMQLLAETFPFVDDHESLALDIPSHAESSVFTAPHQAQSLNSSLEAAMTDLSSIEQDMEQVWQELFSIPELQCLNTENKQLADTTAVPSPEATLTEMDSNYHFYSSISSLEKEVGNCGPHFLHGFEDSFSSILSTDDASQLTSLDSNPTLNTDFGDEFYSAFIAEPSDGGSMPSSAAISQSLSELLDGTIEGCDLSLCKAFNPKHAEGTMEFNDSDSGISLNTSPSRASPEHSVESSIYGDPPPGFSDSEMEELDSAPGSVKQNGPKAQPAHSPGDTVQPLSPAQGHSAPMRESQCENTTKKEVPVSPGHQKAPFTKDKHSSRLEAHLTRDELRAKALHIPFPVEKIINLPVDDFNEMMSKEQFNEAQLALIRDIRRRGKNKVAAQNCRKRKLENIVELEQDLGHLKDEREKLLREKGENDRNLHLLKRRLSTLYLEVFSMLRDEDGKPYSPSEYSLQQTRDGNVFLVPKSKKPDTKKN

BNL CL.2 [8] = test: Effect on KEAP1 level in mouse BNL CL.2 cells assessed as no change treated at 40 uM for 24 hrs by immunoblot analysis; format: functional, cell-based
Mus musculus [9] = test: Hepatoprotective activity against cisplatin induced liver injury […] mouse model assessed as no change in liver to body weight ratio at 40 mg/kg, ip administered every 24 hrs for 72 hrs; format: functional, organism-based
BNL CL.2 [10] = test: Effect of ROS generation in cisplatin induced hepatotoxicity in mouse BNL CL.2 NRF2 knockout cells assessed as increase in ROS level treated at 40 uM for 24 hrs; format: functional, cell-based
BNL CL.2 [11] = test: Upregulation of HIPK4 mRNA expression in mouse […] cells; format: functional, cell-based
Mus musculus [12] = test: Hepatoprotective activity against cisplatin induced liver injury […] mouse model assessed as reduction of MDA in liver tissue at 40 mg/kg, ip administered every 24 hrs for 72 hrs; format: functional, organism-based
BNL CL.2 [13] = test: Upregulation of DYNLT1 mRNA expression in mouse […] cells; format: functional, cell-based
BNL CL.2 [14] = test: Effect of ROS generation in cisplatin induced hepatotoxicity in mouse BNL CL.2 NRF2 cells assessed as increase in ROS level treated at 40 uM for 24 hrs; format: functional, cell-based
[15] = biological target: T2, Nuclear factor erythroid 2-related factor 2 (Homo sapiens) (UniProt Q16236); test: Activation of NRF2 in human HepG2 cells treated for 8 to 24 hrs by immunoblot analysis; format: cell-based; details: filed as activator, dose 10-40 µM, time 8-24 hrs
T2 sequence (whole entry): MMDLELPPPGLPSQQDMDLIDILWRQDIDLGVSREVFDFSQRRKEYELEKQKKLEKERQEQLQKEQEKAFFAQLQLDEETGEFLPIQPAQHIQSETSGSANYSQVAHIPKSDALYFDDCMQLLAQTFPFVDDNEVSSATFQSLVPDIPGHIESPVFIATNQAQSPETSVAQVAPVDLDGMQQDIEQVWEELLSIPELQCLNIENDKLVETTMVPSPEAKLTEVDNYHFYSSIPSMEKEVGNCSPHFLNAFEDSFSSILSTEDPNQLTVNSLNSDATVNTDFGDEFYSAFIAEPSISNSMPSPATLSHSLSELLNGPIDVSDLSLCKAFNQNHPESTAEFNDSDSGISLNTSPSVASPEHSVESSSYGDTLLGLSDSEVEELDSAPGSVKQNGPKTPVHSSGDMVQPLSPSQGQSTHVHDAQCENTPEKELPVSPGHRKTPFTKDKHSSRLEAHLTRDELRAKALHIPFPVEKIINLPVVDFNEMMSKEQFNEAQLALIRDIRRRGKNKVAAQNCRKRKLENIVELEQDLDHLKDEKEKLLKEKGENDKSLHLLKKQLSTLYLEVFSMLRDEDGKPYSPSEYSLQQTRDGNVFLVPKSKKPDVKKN

BNL CL.2 [16] = test: Upregulation of OAS1 mRNA expression in mouse […] cells; format: functional, cell-based
BNL CL.2 [17] = test: Upregulation of DZANK1 mRNA expression in mouse […] cells; format: functional, cell-based
BNL CL.2 [18] = test: Effect of ROS generation in cisplatin induced hepatotoxicity in mouse BNL CL.2 cells assessed as increase in ROS level treated at 40 uM for 24 hrs (reference value: 83%); format: functional
BNL CL.2 [19] = test: Effect on KEAP1 level in mouse BNL CL.2 NRF2 knockout cells assessed as no change treated at 40 uM for 24 hrs by immunoblot analysis; format: functional, cell-based
[20] = biological target: T1, Nuclear factor erythroid 2-related factor 2 (Mus musculus); test: Ubiquitination activity in Flag-tagged NRF2 in mouse BNL CL.2 cells at 40 uM for 24 hrs followed by MG132 treatment for 4 hrs by immunoprecipitation assay; format: cell-based
BNL CL.2 [21] = test: Effect of ROS generation in mouse BNL CL.2 NRF2 knockout cells assessed as increase in ROS level treated at 40 uM for 24 hrs (reference value: 10.6%); format: functional
Mus musculus [22] = test: Hepatoprotective activity against cisplatin induced liver injury […] mouse model assessed as increase of NRF2 expression in liver tissue at 40 mg/kg, ip administered every 24 hrs for 72 hrs by IHC staining analysis; format: functional, organism-based
BNL CL.2 [23] = test: Effect of ROS generation in mouse BNL CL.2 cells incubated at 10 uM for 24 hrs (reference value: 9.42%); format: functional
Mus musculus [24] = test: Hepatoprotective activity against cisplatin induced liver injury […] mouse model assessed as rescue of disorder arrangement of hepatic cord at 40 mg/kg, ip administered every 24 hrs for 72 hrs; format: functional, organism-based
BNL CL.2 [25] = test: Effect on KEAP1 protein level in mouse BNL CL.2 cells assessed as no change in level at 40 uM measured upto 24 hrs; format: functional, cell-based; details: filed as activator
BNL CL.2 [26] = test: Inhibition of autophagy in mouse BNL CL.2 cells assessed as increase in p62 level incubated upto 80 uM for 24 hrs by immunoblotting analysis; format: functional, cell-based
[27] = biological target: T1, Nuclear factor erythroid 2-related factor 2 (Mus musculus); test: Activation of NRF2 in mouse BNL CL.2 cells treated for 8 to 24 hrs by immunoblot analysis; format: cell-based; details: filed as activator, dose 10-40 µM, time 8-24 hrs
BNL CL.2 [28] = test: Upregulation of CCDC122 mRNA expression in mouse […] cells; format: functional, cell-based
[29] = biological target: T1, Nuclear factor erythroid 2-related factor 2 (Mus musculus); test: Activation of NRF2 in mouse BNL CL.2 cells assessed as increase in Hmox1 gene level upto 40 uM incubated upto 24 hrs by rt-qPCR analysis; format: cell-based; details: filed as activator
BNL CL.2 [30] = test: Upregulation of ARSG mRNA expression in mouse […] CL.2 cells; format: functional, cell-based
[31] = biological target: T1, Nuclear factor erythroid 2-related factor 2 (Mus musculus); test: Activation of NRF2 in mouse BNL CL.2 cells assessed as increase in Akr1c1 gene level upto 40 uM incubated upto 24 hrs by rt-qPCR analysis; format: cell-based; details: filed as activator
BNL CL.2 [32] = test: Effect of ROS generation in mouse BNL CL.2 cells incubated at 20 uM for 24 hrs (reference value: 9.42%); format: functional
BNL CL.2 [33] = test: Inhibition of autophagy in mouse BNL CL.2 cells assessed as decrease in LC3-II level incubated upto 80 uM for 24 hrs by immunoblotting analysis; format: functional, cell-based
[34] = biological target: T1, Nuclear factor erythroid 2-related factor 2 (Mus musculus); test: Binding affinity to Flag-tagged NRF2 in mouse BNL CL.2 cells assessed as increase in protein half life treated upto 45 mins with compound; format: cell-based; details: filed as activator
[35] = biological target: Kelch-like ECH-associated protein 1/Nuclear factor erythroid 2-related factor 2 (Mus musculus) (UniProt Q60795+Q9Z2X8); test: Inhibition of in flag-tagged NRF2/wildtype His-tagged KEAP1 in mouse BNL CL.2 cells and protein-protein interaction at 40 uM for 24 hrs followed by treatment with MG132 for 4 hrs by immunoblot assay; format: cell-based; details: filed as activator
BNL CL.2 [36] = test: Effect of ROS generation in mouse BNL CL.2 cells assessed as increase in ROS level treated at 40 uM for 24 hrs (reference value: 8.04%); format: functional
BNL CL.2 [37] = test: Effect of ROS generation in mouse BNL CL.2 cells incubated at 40 uM for 24 hrs (reference value: 9.42%); format: functional
BNL CL.2 [38] = test: Upregulation of NOTUM mRNA expression in mouse […] cells; format: functional, cell-based
[39] = biological target: T1, Nuclear factor erythroid 2-related factor 2 (Mus musculus); test: Activation of flag-tagged NRF2 in mouse BNL CL.2 cells in presence of His-tagged KEAP1 C151S mutant at 40 uM for 24 hrs followed by treatment with MG132 for 4 hrs by immunoblot assay; format: cell-based; details: filed as activator
Mus musculus [40] = test: In vivo activation of NRF2 in C57BL/6J mouse liver assessed as upregulation of NRF2 level administered at 40 mg/kg, ip 3 times in a day by immunohistochemistry analysis; format: functional, organism-based; details: filed as activator, time 1.0 day
Mus musculus [41] = test: Hepatoprotective activity against cisplatin induced liver injury […] mouse model assessed as reduction of […] in liver tissue at 40 mg/kg, ip administered every 24 hrs for 72 hrs; format: functional, organism-based
BNL CL.2 [42] = test: Upregulation of […] mRNA expression in mouse […] CL.2 cells; format: functional, cell-based
BNL CL.2 [43] = test: Inhibition of autophagy in mouse BNL CL.2 cells assessed as suppression of autolysosome formation by measuring reduction in yellow puncta incubated upto 80 uM for 24 hrs by immuno fluoroscence analysis; format: functional, cell-based
[44] = biological target: T1, Nuclear factor erythroid 2-related factor 2 (Mus musculus); test: Activation of flag-tagged NRF2 in mouse BNL CL.2 cells in presence of wildtype His-tagged KEAP1 at 40 uM for 24 hrs followed by treatment with MG132 for 4 hrs by immunoblot assay; format: cell-based; details: filed as activator
BNL CL.2 [45] = test: Inhibition of autophagy in mouse BNL CL.2 cells assessed as suppression of autolysosome formation by measuring reduction in red puncta incubated upto 80 uM for 24 hrs by immuno fluoroscence analysis; format: functional, cell-based
BNL CL.2 [46] = test: Inhibition of autophagy in mouse BNL CL.2 cells assessed as suppression of autophagosome formation by measuring reduction in yellow puncta incubated upto 80 uM for 24 hrs by immuno fluoroscence analysis; format: functional, cell-based
[47] = biological target: T2, Nuclear factor erythroid 2-related factor 2 (Homo sapiens); test: Activation of NRF2 in human MHCC97H cells treated for 8 to 24 hrs by immunoblot analysis; format: cell-based; details: filed as activator, dose 10-40 µM, time 8-24 hrs

Kelch-like ECH-associated protein 1/Nuclear factor erythroid 2-related factor 2 (Mus musculus), sequence (Q9Z2X8 whole entry, looked up, one chain of several): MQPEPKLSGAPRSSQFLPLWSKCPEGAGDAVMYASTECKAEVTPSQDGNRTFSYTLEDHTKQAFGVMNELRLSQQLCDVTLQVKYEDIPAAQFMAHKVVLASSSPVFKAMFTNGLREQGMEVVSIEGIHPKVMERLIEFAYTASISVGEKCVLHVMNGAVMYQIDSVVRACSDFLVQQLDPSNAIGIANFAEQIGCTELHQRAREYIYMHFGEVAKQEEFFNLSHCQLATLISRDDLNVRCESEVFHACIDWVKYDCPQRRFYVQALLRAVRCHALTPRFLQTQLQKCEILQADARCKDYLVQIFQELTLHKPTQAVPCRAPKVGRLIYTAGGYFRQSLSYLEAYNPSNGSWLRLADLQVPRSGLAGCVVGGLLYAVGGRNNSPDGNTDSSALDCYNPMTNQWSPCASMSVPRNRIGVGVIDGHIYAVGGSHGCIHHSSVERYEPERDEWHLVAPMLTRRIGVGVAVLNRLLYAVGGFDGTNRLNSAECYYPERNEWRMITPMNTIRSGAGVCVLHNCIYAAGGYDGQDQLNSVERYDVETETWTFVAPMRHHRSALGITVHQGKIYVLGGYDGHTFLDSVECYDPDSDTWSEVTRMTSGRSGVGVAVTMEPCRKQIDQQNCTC

O=C1C[C@@H](c2ccc(O)cc2)Oc2cc(O)ccc21 [LIQUIRTIGENIN]
9.8%: Activity (BNL CL.2 [23])
91.9%: Activity (BNL CL.2 [5])
inactive: Activity [20]
8.04%: Activity (BNL CL.2 [21])
active: Activity (Mus musculus [1]) | Activity (Mus musculus [2]) | Activity (Mus musculus [3]) | Activity (BNL CL.2 [4]) | inhibition (BNL CL.2 [6]) | Activity [7] | Activity (BNL CL.2 [8]) | Activity (Mus musculus [9]) | Activity (BNL CL.2 [10]) | Activity (BNL CL.2 [11]) | Activity (Mus musculus [12]) | Activity (BNL CL.2 [13]) | Activity (BNL CL.2 [14]) | Activity [15] Dose-Dependent Effect | Activity (BNL CL.2 [16]) | Activity (BNL CL.2 [17]) | Activity (BNL CL.2 [19]) | Activity (Mus musculus [22]) | Activity (Mus musculus [24]) | Activity (BNL CL.2 [25]) | inhibition (BNL CL.2 [26]) | Activity [27] Dose-Dependent Effect | Activity (BNL CL.2 [28]) | Activity [29] | Activity (BNL CL.2 [30]) | Activity [31] | inhibition (BNL CL.2 [33]) | Activity [34] | inhibition [35] | Activity (BNL CL.2 [38]) | Activity [39] | Activity (Mus musculus [40]) | Activity (Mus musculus [41]) | Activity (BNL CL.2 [42]) | inhibition (BNL CL.2 [43]) | Activity [44] | inhibition (BNL CL.2 [45]) | inhibition (BNL CL.2 [46]) | Activity [47] Dose-Dependent Effect
9.34%: Activity (BNL CL.2 [32])
4.52%: Activity (BNL CL.2 [37])
76%: Activity (BNL CL.2 [18])
2.26%: Activity (BNL CL.2 [36])
